Measured values as given in US10973840B2, “Methods of sensitizing tumor cells to weak base chemotherapeutic drugs” (SOCPRA SCIENCES SANTÉ ET HUMAINES S.E.C., priority 2017, dated 2021).
Where two headings read alike, the source gives them in different places.

Tests used:
Type in all cases: cell-based, human
MDA-MB-231 cells [1] = experiment: Intracellular pH measurement (HPTS/SNARF-1) by confocal microscopy, MDA-MB-231; conditions: MDA-MB-231, 1% O2, 4 h; for effect on hypoxia-induced intravesicular acidification: Baf 100 nM, Cq 10 μM
Experimental: (§1) The pH sensing ratiometric dyes SNARF-1 and HPTS (Life Technologies) were used simultaneously for pH measurement of both cytoplasmic (C-SNARF-1) and endosomal/lysosomal (HPTS) compartments as previously described^30. Briefly, cells were cultured in 35 mm petri dishes (BD Biosciences) and used at 50% confluence. For endocytic labeling, cells were incubated overnight with HPTS (1 mM), washed, followed by a 20-min incubation with SNARF-1 (5 μM) to label the cytoplasmic compartment. Living cells were analyzed using an Olympus Fluoview™ FV1000 confocal microscope. Fluorescence emissions of both pH-sensing probes were recorded and subsequently analyzed as described^30.

HT-1080 cells [2] = experiment: Intracellular localization of Dox by confocal live-cell imaging, HT-1080; conditions: for effect on hypoxia-induced Dox sequestration within endosomes: HT-1080, 1% O2, Cq 10 μM, Baf 100 nM
Experimental: (§2) Cells were cultured in 25 mm-diameter glass coverslips (Thermo Fisher Scientific) and incubated under various conditions (as indicated in the FIG. legends). Cells were then incubated for 2 h in a medium containing Dox (2 μM). After the incubation period, cells were washed to remove excess Dox and left in drug-free media for 10 min. […] Coverslips were mounted on glass slides and placed on a 37° C. warmed stage of an Olympus Fluoview™ FV1000 (Olympus, Tokyo, Japan) confocal laser scanning microscope. Dox was excited with a green helium neon laser (543 nm) and emitted fluorescence intensity was measured. Images were acquired on the same day, typically from 10-20 cells of similar size from each experimental condition, using identical instrument settings.

MDA-MB-231 cells [3] = experiment: Intracellular localization of Dox by confocal live-cell imaging, MDA-MB-231; conditions: MDA-MB-231, 1% O2; Cq 10 μM, Baf 100 nM
Experimental: as §2

HT-1080 cells [4] = experiment: Intracellular pH measurement (HPTS/SNARF-1) by confocal microscopy, HT-1080; conditions: HT-1080, 1% O2, 4 h; for effect on hypoxia-induced intravesicular acidification: Baf 100 nM, Cq 10 μM
Experimental: as §1

[5] = tested on: MDA-MB-231 breast cancer cells; experiment: MTT cell viability assay, MDA-MB-231; conditions: for IC50: Homo sapiens, MDA-MB-231, 72 h; for Fold change: MDA-MB-231, IC50 at 1% O2 to IC50 at 21% O2
Experimental: (§3) Cells (5×10^3) were cultured in 96-well plates and pre-incubated under 21% O2 or 1% O2 for 4 h following the addition of drugs for 72 h. Cell viability was measured using the 3-(4,5-dimethylthiazol-2-yl)-2,5-diphenyltetrazolium bromide (MTT) dye (Life Technologies) according to manufacturer's instructions. Because hypoxic conditions may affect the reduction of MTT to formazan, incubation of all cell cultures with MTT were performed under normoxic conditions. Each experiment was performed in triplicate and at least three independent experiments were performed. Log-scale dose-response data were plotted on a graph and a three-parameter non-linear regression was applied to determine IC50 values. For calculation of the IC50s, both normoxic and hypoxic drug-treated samples were normalized with their untreated counterpart.
(§4) To assess the role of pH in hypoxia-induced resistance to anthracyclines, the human breast cancer MDA-MB-231 and fibrosarcoma HT-1080 cell lines were incubated in the presence or absence of the commonly used anthracycline drugs, doxorubicin (Dox), daunorubicin (Dau) and the anthracycline analog drug, mitoxantrone (Mtx), under hypoxic (1% O2) or normoxic (21% O2) conditions for 72 hours. Cell viability was then assessed using the MTT assay. The impact of extracellular pH on Dox uptake by HT-1080 was also assessed.

[6] = tested on: HT-1080 fibrosarcoma cells; experiment: MTT cell viability assay, HT-1080; conditions: for Fold change: HT-1080, IC50 at 1% O2 to IC50 at 21% O2; for increase in resistance toward the drug by hypoxia: HT-1080 cells (so in the source), 1% O2 vs 21% O2; for IC50: Homo sapiens, HT-1080, 72 h
Experimental: as §3, §4

NHE6 = NHE6 localization (cell-surface biotinylation, EEA1 immunofluorescence) in HT-1080
Experimental: Biotinylation steps were performed at […] Cells were grown on circular 15-mm diameter glass coverslips (Thermo Fisher Scientific) and incubated at 21% or 1% O2. Cells were then washed with PBS containing 1 mM CaCl2 and 0.5 mM MgCl2 (PBSCM) and incubated for 5 min with 0.3 mg/ml of EZ-Link Sulfo-NHS-SS-Biotin (Pierce) in PBSCM. Unreacted biotin was quenched using 100 mM glycine. Cells were fixed for 10 min at room temperature using 1% PFA in PBS. Prior to staining, cells were blocked with 5% of BSA for 1 h at room temperature. Biotinylated cells were stained with 5 μg/ml Streptavidin Texas Red (Invitrogen) for 1 h at 4° C. Coverslips were washed and mounted on a microscope slide using Vectashield mounting media (Vector labs).
Cultured cells were fixed with 1% PFA for 10 min at room temperature, permeabilized with saponin (0.05% in PBS) for 20 min, and blocked with 2% BSA in PBS for 30 min. Cells were then incubated with the appropriate primary and secondary antibodies as follows: anti-EEA1 (1/500), anti-Rab7 (1/500) and fluorophore-conjugated secondary antibodies (1/1000). Images were recorded using an Olympus Fluoview™ FV1000 confocal microscope using a 63× oil immersion objective.

NHE6-RACK1 interaction = experiment: Co-immunoprecipitation of NHE6 with RACK1 in HT-1080; conditions: HT-1080, PDBu 100 nM
Experimental: Cells were lysed on ice in NP-40-containing buffer (50 mM Tris-HCl pH 8.0, 150 mM NaCl, 1% NP-40, 5 mM EDTA, phosphatase and protease inhibitors). Cell lysates were centrifuged at 13,000 rpm at 4° C. and protein concentration determined using the BCA protein assay (Thermo Fisher Scientific). After a pre-clearing step with protein A/G-agarose beads (GE Healthcare), protein complexes were immunoprecipitated overnight at 4° C. Samples were incubated in SDS-loading buffer for 30 minutes at room temperature to avoid transmembrane protein aggregates upon heating in a boiling water bath. Proteins were separated by SDS-PAGE electrophoresis, transferred to a PVDF membrane and immunoblotting was performed as described, using anti-NHE6 (1:1000), anti-NHE9 (1:1000) anti-RACK1 (1:2000), anti-tubulin (1:5000), anti-actin (1:5000) anti-HA (1:1000), anti-PKC (1:200), anti-phospho PKC substrate (1:1000), anti-LAMP2 (1:200), anti-P-glycoprotein (1:200) and HRP-conjugated secondary antibodies (1/10 000)^66.

With `CO/C1=C\C(C)=C\[C@@H](C)[C@@H](O)[C@@H](C)C/C(C)=C/C=C/[C@H](OC)[C@@H]([C@@H](C)[C@@H](O)[C@H](C)[C@@]2(O)C[C@@H](O)[C@H](C)[C@@H](C(C)C)O2)OC1=O` [Baf, bafilomycin A1] the “effect on hypoxia-induced intravesicular acidification” value (MDA-MB-231 cells [1]) was “prevented”, the “effect on hypoxia-induced Dox sequestration within endosomes” value (HT-1080 cells [2]) was “abolished hypoxia-induced Dox sequestration within endosomes” and the “effect on hypoxia-induced Dox sequestration within endosomes” value (MDA-MB-231 cells [3]) was “abolished hypoxia-induced Dox sequestration within endosomes”. The “effect on hypoxia-induced intravesicular acidification” value (HT-1080 cells [4]) was “prevented”.
`CCN(CC)CCCC(C)Nc1ccnc2cc(Cl)ccc12` (centres unmarked) [Cq, chloroquine] was tested, and the “effect on hypoxia-induced intravesicular acidification” value (MDA-MB-231 cells [1]) was “prevented”, the “effect on hypoxia-induced Dox sequestration within endosomes” value (HT-1080 cells [2]) was “abolished hypoxia-induced Dox sequestration within endosomes” and the “effect on hypoxia-induced Dox sequestration within endosomes” value (MDA-MB-231 cells [3]) was “abolished hypoxia-induced Dox sequestration within endosomes”. The “effect on hypoxia-induced intravesicular acidification” value (HT-1080 cells [4]) was “prevented”.
In the case of `COc1cccc2c1C(=O)c1c(O)c3c(c(O)c1C2=O)C[C@@](O)(C(C)=O)C[C@@H]3O[C@H]1C[C@H](N)[C@H](O)[C@H](C)O1` [Dau, daunorubicin], the IC50 ([5]; read-out: IC50 of anthracyclines, MDA-MB-231, 1% O2, 72 h) is reported as 921 nM, the IC50 ([5]; read-out: IC50 of anthracyclines, MDA-MB-231, 21% O2, 72 h) is reported as 199 nM and the Fold change [5] is reported as 4.7 fold. For the same compound, the Fold change [6] was 8.1 fold, the “increase in resistance toward the drug by hypoxia” value [6] was 4.7 fold and the IC50 ([6]; read-out: IC50 of anthracyclines, HT-1080, 1% O2, 72 h) was 814 nM. The IC50 ([6]; read-out: IC50 of anthracyclines, HT-1080, 21% O2, 72 h) was 102 nM.
For `CCN(c1nc(N)c(C(=O)NC(=N)N)nc1Cl)C(C)C` [EIPA], the “effect on hypoxia-induced increase in cytosolic pH” value (MDA-MB-231 cells [1]; EIPA 25 μM) was “prevented” and the “effect on hypoxia-induced increase in cytosolic pH” value (HT-1080 cells [4]; EIPA 25 μM) was “prevented”.
For `CN(C)CCCn1cc(C2=C(c3c[nH]c4ccccc34)C(=O)NC2=O)c2ccccc21` [GF109203X], the “Dox within the nucleus” value (HT-1080 cells [2]; HT-1080, 1% O2, PKC inhibition (GF-109203x 200 nM)) was “promoted the accumulation of Dox in the nuclear compartment”, the “hypoxia-induced NHE6 relocalization” value (NHE6; HT-1080, 1% O2, 4 h, GF-109203x 200 nM) was “blocked” and the “endosomal/lysosomal pH under hypoxic conditions” value (HT-1080 cells [4]; PKC inhibition (GF-109203x 200 nM)) was “partial recovery of normal pH values”.
`O=C1c2c(O)ccc(O)c2C(=O)c2c(NCCNCCO)ccc(NCCNCCO)c21` [Mtx, mitoxantrone] was tested, and the IC50 ([5]; MDA-MB-231, 1% O2, 72 h, read-out: IC50 of anthracyclines) was 752 nM, the IC50 ([5]; MDA-MB-231, 21% O2, 72 h, read-out: IC50 of anthracyclines) was 152 nM and the Fold change [5] was 5.0 fold. The Fold change [6] was 4.9 fold, the “increase in resistance toward the drug by hypoxia” value [6] was 5.0 fold and the IC50 ([6]; HT-1080, 1% O2, 72 h, read-out: IC50 of anthracyclines) was 451 nM. The IC50 ([6]; HT-1080, 21% O2, 72 h, read-out: IC50 of anthracyclines) was 93.5 nM.
`CCCC(=O)O[C@@H]1[C@@H](C)[C@@]2(O)[C@@H](C=C(CO)C[C@]3(O)C(=O)C(C)=C[C@@H]23)[C@@H]2C(C)(C)[C@]12OC(=O)CCC` [PDBu, phorbol-12,13-dibutyrate] was tested, and the “relocalization of NHE6 from endosomes to the plasma membrane” value (NHE6; HT-1080, normoxia, PDBu 100 nM) was “promoted” and the “association of NHE6 with RACK1” value (NHE6-RACK1 interaction) was “promoted”.
